Legend:
Jurkat cells = assay: Phenotypical evaluation of ATR inhibition: S-phase arrest of Jurkat cells under aphidicolin replication stress, flow cytometry; format: cell-based, human; conditions: 0.2 μM aphidicolin, 24 hours
Experimental: It is known that inhibition of ATR in cells under replicative stress stalls DNA replication, which prevents cells from progressing through S-phase, leading to an accumulation of cells in this cell cycle phase (Kevin D. Smith, et al., Tim-Tipin dysfunction creates an indispensable reliance on the ATR-Chk1 pathway for continued DNA synthesis, J. Cell Biol. 2009, 187, 15-23). In the present experiment Jurkat cells were treated with 0.2 μM aphidicolin to induce replication stress in the presence of test compounds, at concentrations ranging from 10 μM to 0.1 μM, for 24 hours. Cells were fixed and cell-cycle profiles examined by flow cytometry as in Smith, J. Cell Bio. 2009. Test compounds were considered active if stalling of the cells in S-phase was observed.

ATR = target: T1, ATR (Homo sapiens, UniProt Q13535); assay: ATR cellular kinase activity: Chk1 and H2AX phosphorylation in HCT119 WT BCL/XL-GFP cells with aphidicolin, western blot; format: cell-based; conditions: 5 μM aphidicolin, 4 hours
T1 construct: endogenous in cells; host or cells: HCT119 WT BCL/XL-GFP cells
Source text: (§1) Chk1 phosphorylation, ATR's primary downstream target, is used as a read-out for ATR activity (Liu Q. et al., Chk1 is an essential kinase that is regulated by Atr and required for the G(2)/M DNA damage checkpoint, Genes Dev. 2000, Jun. 15, 14(12), 1448-1459; and (Jia Li and David F. Stern, Regulation of CHK2 by DNA-dependent Protein Kinase, J Biol. Chem. 2005, 280, 12041-12050). Chk2 phosphorylation (stimulated by 5 Gy irradiation), is a marker of ATM and DNA-PKcs activity, which together with ATR are closely related DNA-damage responsive PIKK family kinases (Shuhei Matsuoka et al., Ataxia telangiectasia-mutated phosphorylates Chk2 in vivo and in vitro, Proceedings of the National Academy of Sciences of the USA, 2000, 97(19), 10389-10394; Li J and Stern D F, Regulation of CHK2 by DNA-dependent protein kinase. The Journal of biological chemistry, 2005, 280, 12041-12050).
HCT119 WT BCL/XL-GFP cells were incubated with decreasing concentrations of test compounds (10-0.003 μM) and 5 μM aphidicolin for 4 hours prior to lysis. Cell lysis and western blotting were performed as in Gilad, Cancer Res, 2010, using the following antibodies as per manufacturers' instructions: pCHK1 (Ser345) (Cell signaling 133D3), pH2AX (S139) (Millipore 05636), GAPDH (loading control, Chemicon MAB374), and MCM3 (loading control, Santa Cruz sc-9850). Test compounds were considered active if significant inhibition of Chk1 phosphorylation was observed.

Chk2 phosphorylation = assay: ATR kinase selectivity: Chk2 phosphorylation in HCT119 WT BCL/XL-GFP cells after 5 Gy irradiation, western blot; format: cell-based, human; conditions: 5-0.01 μM compound, stimulated by 5 Gy irradiation, pChk2 (T68) (FIG. 4C)
Source text: as §1
HCT119 WT BCL/XL-GFP cells were incubated with decreasing concentrations of test compounds (5-0.01 μM) alone for 30 minutes followed by 5 Gy irradiation and cell lysis 20 minutes post irradiation. Cell lysis and western blotting were performed as in Gilad, Cancer Res, 2010, using the following antibodies as per manufacturers' instructions: pChk2 (T68) (Cell Signaling 2661S), GAPDH (loading control, Chemicon MAB374), and MCM3 (loading control, Santa Cruz sc-9850).

[1] = 1.25 μM compound, Jurkat cells (FIGS. 3A, 3B)

T1 sequence (Q13535 whole entry): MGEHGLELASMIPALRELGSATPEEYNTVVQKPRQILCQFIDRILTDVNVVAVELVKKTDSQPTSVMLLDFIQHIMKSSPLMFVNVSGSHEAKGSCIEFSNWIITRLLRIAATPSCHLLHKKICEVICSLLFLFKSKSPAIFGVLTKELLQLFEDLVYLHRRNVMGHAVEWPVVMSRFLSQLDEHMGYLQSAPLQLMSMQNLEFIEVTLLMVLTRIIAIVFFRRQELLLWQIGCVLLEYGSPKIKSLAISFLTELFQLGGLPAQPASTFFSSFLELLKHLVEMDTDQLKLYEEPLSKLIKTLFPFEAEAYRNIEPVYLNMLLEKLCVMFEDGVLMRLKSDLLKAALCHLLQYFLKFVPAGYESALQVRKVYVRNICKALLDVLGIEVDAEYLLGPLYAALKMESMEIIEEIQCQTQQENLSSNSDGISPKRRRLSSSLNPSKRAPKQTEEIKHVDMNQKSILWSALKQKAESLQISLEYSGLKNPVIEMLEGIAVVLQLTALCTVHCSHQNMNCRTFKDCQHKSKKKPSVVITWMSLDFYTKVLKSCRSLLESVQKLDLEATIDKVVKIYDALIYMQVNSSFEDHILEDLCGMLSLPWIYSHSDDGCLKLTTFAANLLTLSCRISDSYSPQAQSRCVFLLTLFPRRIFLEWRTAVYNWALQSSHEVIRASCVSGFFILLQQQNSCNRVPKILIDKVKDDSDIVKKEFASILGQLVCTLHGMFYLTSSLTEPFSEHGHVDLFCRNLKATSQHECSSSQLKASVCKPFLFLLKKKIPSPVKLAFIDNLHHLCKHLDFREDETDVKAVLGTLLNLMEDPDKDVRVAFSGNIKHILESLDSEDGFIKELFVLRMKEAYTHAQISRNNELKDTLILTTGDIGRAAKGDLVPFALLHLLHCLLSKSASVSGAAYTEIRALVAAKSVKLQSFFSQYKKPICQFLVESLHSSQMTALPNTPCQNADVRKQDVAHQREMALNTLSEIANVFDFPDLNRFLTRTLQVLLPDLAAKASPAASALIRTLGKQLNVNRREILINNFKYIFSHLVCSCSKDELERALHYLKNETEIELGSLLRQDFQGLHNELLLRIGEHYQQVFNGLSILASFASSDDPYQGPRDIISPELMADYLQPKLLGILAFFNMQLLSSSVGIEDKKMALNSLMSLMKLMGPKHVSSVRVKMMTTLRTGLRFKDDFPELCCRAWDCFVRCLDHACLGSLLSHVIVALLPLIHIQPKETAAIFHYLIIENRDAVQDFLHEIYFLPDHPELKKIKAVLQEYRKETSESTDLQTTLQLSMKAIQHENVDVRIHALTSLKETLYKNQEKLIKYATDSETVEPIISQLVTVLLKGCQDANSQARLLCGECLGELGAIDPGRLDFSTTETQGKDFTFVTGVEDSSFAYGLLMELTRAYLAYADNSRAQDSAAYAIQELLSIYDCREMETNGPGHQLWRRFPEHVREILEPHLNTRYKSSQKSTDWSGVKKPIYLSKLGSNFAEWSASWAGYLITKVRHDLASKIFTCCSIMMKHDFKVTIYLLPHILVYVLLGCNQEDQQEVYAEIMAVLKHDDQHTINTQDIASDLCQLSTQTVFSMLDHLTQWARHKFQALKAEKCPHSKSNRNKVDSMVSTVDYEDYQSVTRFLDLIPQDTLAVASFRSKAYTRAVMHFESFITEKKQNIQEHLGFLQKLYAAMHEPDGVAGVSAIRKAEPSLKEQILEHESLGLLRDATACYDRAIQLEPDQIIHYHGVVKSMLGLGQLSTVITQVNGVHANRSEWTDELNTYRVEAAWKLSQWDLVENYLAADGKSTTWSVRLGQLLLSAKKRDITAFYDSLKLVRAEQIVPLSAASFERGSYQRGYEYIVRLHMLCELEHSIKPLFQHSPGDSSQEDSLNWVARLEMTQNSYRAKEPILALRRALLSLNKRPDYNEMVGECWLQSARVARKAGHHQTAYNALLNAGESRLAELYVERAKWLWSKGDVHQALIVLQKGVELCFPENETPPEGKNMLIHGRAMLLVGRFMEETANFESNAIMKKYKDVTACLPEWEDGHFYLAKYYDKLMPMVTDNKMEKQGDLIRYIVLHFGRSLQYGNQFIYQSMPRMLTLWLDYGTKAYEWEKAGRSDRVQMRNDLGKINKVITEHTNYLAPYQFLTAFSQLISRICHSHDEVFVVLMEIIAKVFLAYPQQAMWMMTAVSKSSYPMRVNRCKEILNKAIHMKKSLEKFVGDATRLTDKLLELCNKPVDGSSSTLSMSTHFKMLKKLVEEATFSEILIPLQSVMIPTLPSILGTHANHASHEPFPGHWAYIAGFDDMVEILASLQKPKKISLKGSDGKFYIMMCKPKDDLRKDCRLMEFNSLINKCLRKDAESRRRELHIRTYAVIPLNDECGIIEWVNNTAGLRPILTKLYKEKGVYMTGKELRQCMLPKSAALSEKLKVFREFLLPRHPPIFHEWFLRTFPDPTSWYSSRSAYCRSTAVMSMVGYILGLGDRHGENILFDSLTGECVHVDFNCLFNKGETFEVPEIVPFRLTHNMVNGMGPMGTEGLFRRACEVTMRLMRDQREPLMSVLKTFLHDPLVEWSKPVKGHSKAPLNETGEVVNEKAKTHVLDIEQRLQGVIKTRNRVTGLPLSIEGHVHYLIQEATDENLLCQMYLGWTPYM
T1 sequence (Q8WXE1 whole entry partner): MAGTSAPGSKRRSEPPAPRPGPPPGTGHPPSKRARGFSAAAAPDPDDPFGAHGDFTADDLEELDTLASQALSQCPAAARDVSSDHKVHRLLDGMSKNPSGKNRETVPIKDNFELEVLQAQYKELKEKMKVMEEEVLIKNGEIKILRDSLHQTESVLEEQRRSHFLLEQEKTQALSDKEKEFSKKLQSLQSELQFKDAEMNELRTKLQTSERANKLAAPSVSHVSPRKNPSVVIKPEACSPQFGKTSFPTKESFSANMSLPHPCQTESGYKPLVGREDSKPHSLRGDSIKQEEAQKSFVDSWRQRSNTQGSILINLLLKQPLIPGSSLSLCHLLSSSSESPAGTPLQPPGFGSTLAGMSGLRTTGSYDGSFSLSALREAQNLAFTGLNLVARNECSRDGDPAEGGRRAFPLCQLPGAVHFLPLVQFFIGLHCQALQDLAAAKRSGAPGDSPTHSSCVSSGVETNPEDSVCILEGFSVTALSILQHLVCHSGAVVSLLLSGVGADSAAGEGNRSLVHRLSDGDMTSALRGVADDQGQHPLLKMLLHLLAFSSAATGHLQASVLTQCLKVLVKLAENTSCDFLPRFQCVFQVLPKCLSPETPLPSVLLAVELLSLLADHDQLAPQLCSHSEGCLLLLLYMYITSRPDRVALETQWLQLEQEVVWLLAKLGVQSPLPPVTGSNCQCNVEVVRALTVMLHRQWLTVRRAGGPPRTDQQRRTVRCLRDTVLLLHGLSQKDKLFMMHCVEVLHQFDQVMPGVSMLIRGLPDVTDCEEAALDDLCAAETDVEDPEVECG

SMILES | inhibition of cell cycle progression by accumulation of cells in S-phase (Jurkat cells; [1]) | inhibition of cell cycle progression by accumulation of cells in S-phase (Jurkat cells; 2.5 μM compound, Jurkat cells (FIG. 2)) | inhibition of cell cycle progression by accumulation of cells in S-phase (Jurkat cells; 10 μM compound, Jurkat cells (FIG. 1)) | concentration at which Chk1 phosphorylation is completely inhibited (ATR; pCHK1 (Ser345) (FIG. 4B)) [μLM] | lowest dose able to limit phosphorylation of Chk1 (ATR; pCHK1 (Ser345) (FIG. 4B)) [nM] | H2AX phosphorylation (DNA double strand breaks) (ATR; pH2AX (S139) (FIG. 4B)) | levels of Chk2 phosphorylation (Chk2 phosphorylation)
CNS(=O)(=O)c1ccc(-c2cnc(N)c(C(=O)Nc3ccccc3OCCOCCOCCO)n2)cc1 [IM11, 3-amino-N-(2-(2-(2-(2-hydroxyethoxy)ethoxy)ethoxy)phenyl)-6-(4-(N-methylsulfamoyl)phenyl)pyrazine-2-carboxamide] | inactive |  |  |  |  |  | 
CN1CCOCCOCCOc2ccccc2NC(=O)c2nc(cnc2N)-c2ccc(cc2)S1(=O)=O [P(1)] | significant inhibition of cell cycle progression | significant inhibition of cell cycle progression | significant inhibition of cell cycle progression |  |  |  | 
CNCc1cccc2c1OCCOCCOCCN(C)S(=O)(=O)c1ccc(cc1)-c1cnc(N)c(n1)C(=O)N2 [P(4)] |  |  |  | ≥ 1 | 30 | increased H2AX phosphorylation | did not affect
